Data: patent US20110281788A1, “ANTI FUNGAL THERAPY” (priority 2008, published 2011)
Read-outs that look alike come from different tables or passages of the source. Where a SMILES comes first, the peptide text is derived from it. Where no end group is shown, it is not given here.

What was measured:
[1] = system: yeast (Saccharomyces cerevisiae); experiment: Disc diffusion assay of yeast growth inhibition (FIG. 1 A-G); assay type: cell-based
Source text: The data shown in FIG. 1(h)-(n) are for the highly resistant yeast Candida glabrata which is difficult to treat due to its high intrinsic resistance to traditional antifungals. The data shown in FIGS. 1(o)-(u) are for Candida albicans. As above, the panels (h) through (u) show the effect of an echinocandin compound, an antimicrobial peptide and a combination of the two on Candida glabrata and Candida albicans.
Sterile filter paper discs (6 mm, Aa, Whatman) were impregnated with either, peptides or caspofungin alone, or peptides and caspofungin together, and left in sterile Petri dishes overnight at room temperature to dry. Following this, 100 μl of mid-exponential phase culture of yeast was spread onto the surface of MEB, pH 7 plus 2% agarose plates and left to dry for 1 h at room temperature. MEB plates were made with 2% agarose rather than agar because the agar inhibited the action of the antimicrobial peptides. Discs containing the various antifungal combinations were then applied to the surface and the plates were incubated at 30° C. for 48 h. Images showing the zones of inhibition were obtained by scanning the plates using an ImageScanner (GE Healthcare UK Ltd, Chalfont St Giles, UK) with ImageMaster Labscan v 3.00 software (GE Healthcare UK Ltd). Images were annotated using Microsoft PhotoDraw.

yeast = experiment: Liquid culture assay of yeast growth inhibition, OD600 growth curves (FIG. 4); assay type: cell-based; details: sub-inhibitory peptide combined with sub-inhibitory caspofungin
Method: The lines represent: Blue—untreated yeast culture alone; Yellow—yeast culture in the presence of a subinhibitory concentration of caspofungin alone; Green—yeast culture in the presence of a subinhibitory concentration of an antimicrobial peptide alone; Red—culture in the presence of a combination of sub-inhibitory caspofungin with sub-inhibitory peptide.
Sterile MEB, pH 7 was added (300 μl) to each well of 48-well microtitre plate (Greiner Bio-one Ltd, Stonehouse, UK) followed by appropriate concentrations of each peptide alone, caspofungin alone and various combinations of peptides with caspofungin. The wells were then inoculated with mid-exponential phase yeast cultures to give starting cell numbers of 1000 cells per well. […] OD600 readings were taken every 15 minutes. Data was analysed in Microsoft Excel.

C. albicans SC5314 = assay type: cell-based, Candida albicans; details: RPMI-1640, <0.5 synergy, >4 antagonism, 0.5 to 4 no interaction
Method: (§1) 96-well micro-titre plate (Greiner Bio-one Ltd, Stonehouse, UK) wells were filled with 150 μl MEB or RPMI-1640, 2% MOPS (Sigma), pH 7 and concentrations of either peptides or caspofungin alone, or combinations of peptides with caspofungin. Approximately 500 cells from mid-exponential phase cultures of the yeast strains described above were then added to each well. Plates were incubated at 30° C. for 48 hours and scanned as described above.
(§2) Fractional inhibitory concentration (FIC) indices for combinations of caspofungin or anidulafungin with various antimicrobial peptides calculated from chequerboard assays of visible growth inhibition of three Candida strains tested in RPMI-1640. IC values highlighted in grey indicate combinations where no synergy was observed. Fractional Inhibitory Concentration (FIC)=[…] where <0.5 synergy, >4 antagonism and 0.5 to 4 no interaction. (Odds, F. C. (2003) Synergy, antagonism, and what the chequerboard puts between them. J. Antimic. Chemother.) N/A—not tested.

[2] = system: C. albicans (Hospital isolate); assay type: cell-based, Candida albicans; details: RPMI-1640, <0.5 synergy, >4 antagonism, 0.5 to 4 no interaction
Method: as §1, §2

[3] = system: C. glabrata (Hospital isolate); assay type: cell-based, Candida glabrata; details: RPMI-1640, <0.5 synergy, >4 antagonism, 0.5 to 4 no interaction
Method: as §1, §2

[4] = peptide applied together with caspofungin
[5] = substance alone, at the concentrations displayed
[6] = peptide combined with anidulafungin
[7] = peptide combined with caspofungin

Molecule	zones of clearing around impregnated filter paper discs on agar plates [1, 4]	zones of clearing around impregnated filter paper discs on agar plates [1, 5]	yeast growth (OD600) over 24 h in microtitre plate wells (yeast)	Fractional inhibitory concentration (FIC) index (C. albicans SC5314; [6])	Fractional inhibitory concentration (FIC) index (C. albicans SC5314; [7])	Fractional inhibitory concentration (FIC) index [2, 6]	Fractional inhibitory concentration (FIC) index [2, 7]	Fractional inhibitory concentration (FIC) index [3, 6]	Fractional inhibitory concentration (FIC) index [3, 7]
CC[C@H](C)[C@H](NC(=O)[C@H](CCSC)NC(=O)[C@H](C)NC(=O)[C@@H]1CCCN1C(=O)[C@@H](NC(=O)[C@@H](NC(=O)[C@H](CCCCN)NC(=O)[C@@H](NC(=O)[C@H](CC(C)C)NC(=O)CNC(=O)CNC(=O)[C@H](CC(C)C)NC(=O)[C@@H](N)Cc1ccccc1)[C@@H](C)CC)[C@@H](C)CC)C(C)C)C(=O)N[C@H]1CSSC[C@@H](C(=O)O)NC(=O)[C@H](CCCCN)NC(=O)[C@H](CCCCN)NC(=O)[C@H]([C@@H](C)O)NC(=O)[C@H](C(C)C)NC(=O)[C@H](C)NC1=O [Ranalexin, ranalexin] (HELM PEPTIDE1{F.L.G.G.L.I.K.I.V.P.A.M.I.C.A.V.T.K.K.C}$PEPTIDE1,PEPTIDE1,14:R3-20:R3$$$V2.0; N-terminus and C-terminus assumed; bridges inferred)	very clear zones of clearing	minimal effect on yeast growth	complete abolition of yeast growth	–	–	–	–	–	–
Colistin sulfate	–	–	–	0.230	0.249	–	–	–	–
Polymyxin B	–	–	–	0.590	0.310	–	–	–	–
ALWKNMLKGIGKLAGK [DsS3(1-16), dermaseptin S3(1-16)]	Evident zones of clearing	no zones of clearing visible	complete abolition of yeast growth	–	–	–	–	–	–
GIGKFLHSAKKFGKAFVGEIMNS [Magainin 2, magainin 2]	very clear zones of clearing	minimal effect on yeast growth	complete abolition of yeast growth	0.095	0.144	0.087	0.135	0.376	0.278
CC[C@H](C)C[C@H](C)CCCCCCCCC(=O)N[C@H]1C[C@@H](O)[C@@H](NCCN)NC(=O)[C@@H]2[C@@H](O)CCN2C(=O)[C@H]([C@H](O)CCN)NC(=O)[C@H]([C@H](O)[C@@H](O)c2ccc(O)cc2)NC(=O)[C@@H]2C[C@@H](O)CN2C(=O)[C@H]([C@@H](C)O)NC1=O [caspofungin, 1-[(4R,5S)-5[(2-aminoethyl)amino]-N^2-(10,12-dimethyl-1-oxotetradecyl)-4-hydroxy-L-ornithine]-5-[(3R)-3-hydroxy-L-ornithine]pneumocandin B0]	–	no zones of clearing	–	–	–	–	–	–	–
